Data on 13 molecules can be found in patent US20250206704A1, “ENGINEERED IONOPHORES FOR TRANSPORT OF METAL IONS” (The Brigham and Women's Hospital, Inc., priority 2022, published 2025).

In data set [1] the test system is U2OS cells. The data set can be described thus: Zinc imaging assay (DA-ZP1 fluorescence) of ionophore activity in U2OS cells. To be noted: U2OS cells; for ionophore activity (Zn^II transport, DA-ZP1 fluorescence): 10 μM Zn(II) and 10 μM compound, 1 hour, then DA-ZP1; for ionophore activity (DA-ZP1 fluorescence): 10 μM Zn(II) and 5 μM compound; for concentration at which ionophore activity is displayed: DA-ZP1, comparison with known ionophores. It is filed as cell-based. From the text:
A number of bispicolyl-based Zn^II-chelators were synthesized with increasing size at the ortho-position of phenolic OH by a one-step reductive amination between bispicolyl-amine and commercially available 3-substituted salicylaldehydes. Applicants examined the ionophore activity of bispicolyl analogs with methyl (Me, 2), isopropyl (iPr, 3), and tert-butyl (tBu, 4) substitutions (FIG. 1A). […] [13] The cells were first treated with ZnCl2 and ionophore candidates followed by DA-ZP1 treatment and fluorescence measurement.
Applicants experimentally determined the ionophore activity of these silyl-based compounds using the aforementioned DAZ-P1 assay in U2OS cells.
Applicants also determined metal-ion interference of the silyl-based ionophores with focused efforts on 8. Applicants designed a competition assay wherein Applicants pre-treated equimolar amounts of various metal ions, Mg^II, Ca^II, Mn^II, Fe^II, and Na^I, with 10 μM of Zn^II for 1 hour before treatment with DA-ZP1.
Finally, Applicants compared the activity of the designed compounds against known ionophores (FIGS. 2 and 11). […] [16]
In a 96-well plate, 20,000 U2OS cells were plated per well and cultured for 24 h in the incubator set to 37° C. with 5% CO2. […] The medium containing the compound was removed, and the cells were washed with 3×100 μL of fresh medium, and finally another 100 μL of 2 μM of DA-ZP1 was added to the corresponding cell culture medium containing HCS NuclearMask Blue Stain. The cells were again kept for 1 h in the incubator. The medium containing compound was removed, and the cells were washed with 1×100 μL of PBS and 2×100 μL of fresh medium, and finally, another 100 μL of fresh, dye-free medium was added. The cells were immediately imaged using a high-content fluorescence microscope (Operetta Phenix) in both the DAPI and FITC channels at 20× magnification. Images were analyzed using the Harmony software, and data were plotted using GraphPad Prism 9.

The subject of data set [2] is Staphylococcus epidermidis. The data set can be described thus: MIC, broth microdilution. It is filed as cell-based. The source says: (§1) Next, Applicants evaluated the antibacterial activities of the ionophores. First, Applicants determined their minimum inhibitory concentration (MIC) in the gram-positive bacterium that causes hospital-acquired infections, Staphylococcus epidermidis.
(§2) Applicants reasoned that limiting extracellular zinc with EDTA would abolish ionophore activity by depleting the available metal ions for membrane transport. […] [24]
(§3) Staphylococcus epidermidis ATCC® 12228™, Staphylococcus caprae ATCC® 51549™, Bacillus subtilis ATCC® 6051™, and Bacillus cereus ATCC® 14579™ were grown in cation-adjusted Mueller-Hinton broth (CA-MHB) (catalog no. 90922, Sigma) as per the Clinical and Laboratory Standards Institute guidelines.2 Bacteria were routinely grown at 37° C. under aerobic conditions.
(§4) The MIC assay was performed according to the Clinical and Laboratory Standards Institute protocols.^3 The antibacterial activities of the compounds were measured using the broth microdilution method. Serial dilutions of compounds were prepared in cation-adjusted Müller Hinton Broth. Each dilution (100 μL) was dispensed to each well of a round-bottom plate to obtain final concentrations ranging from 0.07815-40 μM. Bacteria were grown at 37° C. overnight on cation-adjusted Müller Hinton Broth. The bacterial solution was prepared in 0.9% saline and adjusted to obtain an OD600=0.1 using a SpectraMax M5 (Molecular Devices). The resultant suspension was diluted 1:20 with cation-adjusted Müller Hinton Broth. The resulting mixture (10 μL) was added to each well of the plates (approximately 5×10^4 CFU/well), mixed, and incubated at 37° C. for 24 h. The MIC value was determined as the minimum concentration that inhibited the growth of bacteria.

The conditions of data set [3]: value quoted for comparison; cited from earlier work.
The next data set deals with Bacillus cereus. Put plainly: MIC, broth microdilution. Format: cell-based. The conditions noted are these: read-out: Strain MIC B. cereus. On the procedure:
as §1, §3, §4

For the next data set, the system named is Bacillus subtilis. The data set can be described thus: MIC, broth microdilution. It is filed as cell-based. To be noted: read-out: Strain MIC B. subtilis. On the procedure:
as §1, §3, §4

The subject of the next data set is Staphylococcus caprae. The data set can be described thus: MIC, broth microdilution. Format: cell-based. The conditions noted are these: read-out: Strain MIC S. caprae. On the procedure: as §1, §3, §4
Data set [4] relates to U2OS cells. The data set can be described thus: U2OS cell viability assay (CellTiter-Glo). It is filed as cell-based. To be noted: Homo sapiens, 48 h, read-out: U2OS EC50 + 5 μM Zn^II. On the procedure:
as §2
U2OS cells were seeded in black 384-well plates at a density of 3,000 cells per well in 25 μL of medium per well. After seeding, the cells were left to adhere overnight. The compounds to be tested were added to the designated culture plates in 25 μL of medium in triplicate with a normalized DMSO concentration (0.05%) in all treatments, and the plates were placed at 37° C. in a humidified atmosphere containing 5% CO2. After 48 h, 40 μl of CellTiter-Glo (Promega) was added to each well and incubated for 30 min, after which the plate luminescence was analyzed in a PerkinElmer EnVision Manager 1.13 (PerkinElmer). The average growth of treated cells was calculated by correcting the values for background luminescence and was subsequently normalized to the average of the two lowest treatments of the compound in question. Data were plotted and fitted to a dose-response curve using GraphPad Prism 9.

The test system of data set [5] is S. epidermidis, S. caprae, B. subtilis, B. cereus. Put plainly: Average MIC over the four gram-positive strains. Format: cell-based. On the procedure: as §1, §4
Another data set has as its system bacteria vs U2OS cells. The data set can be described thus: Antibacterial selectivity (average molar MIC in bacteria vs EC50 in U2OS cells). Format: cell-based.
The subject of data set [6] is U2OS cells. The data set can be described thus: ICP-MS analysis of intracellular Zn(II) in U2OS cells. Format: cell-based. The conditions noted are these: 10 μM Zn(II) and 5 μM compound, 1 hour. On the procedure: Next, Applicants used inductively coupled plasma mass spectrometry (ICP-MS) to validate the imaging assay and the ionophores activity (FIG. 1F). While the intracellular Zn^II levels where similar between DMSO and chelator 1, Zn^II concentrations inside cells were 3-fold higher when Applicants co-treated ionophores 8 and 9.
U2OS cells (˜200,000) were plated in a 6-well dish. After a day, the medium was aspirated, and Zn(II) (10 μM) and compounds (5 μM) containing media (2 mL) were added to each appropriate well. Cells were harvested by first washing each well with PBS containing EDTA (100 μM, 2×2.0 mL) and subsequently adding Milli-Q water ([…] to each well and incubating for 2-4 min. A portion of the resulting cell lysate (900 μL) was collected and transferred to an Eppendorf Safe-Lock tube, snap-frozen in N2(l), and then thawed at room temperature (RT) for a total of three freeze-thaw cycles. The insoluble lysate was pelleted (10 min at 10,000 g), and the soluble protein concentration of each sample was determined using the Pierce 660 nm Protein Assay in a 96-well plate (200 μL of reagent, 14 μL of sample, bovine serum albumin standard curve). Samples were then frozen and lyophilized overnight, and the resulting white, flaky solid was taken up in concentrated nitric acid (200 μL, ultrapure for trace metal analysis, BDH Aristar) and heated at 70° C. for 1 h. A portion of each sample (142 μL) was then diluted with water (2 mL) and a terbium internal standard (Agilent 5190-8590; stock at 10,000 parts per billion [ppb] in 10% nitric acid diluted to 100 ppb in Milli-Q water for addition to samples, 2 ppb final concentration), after which the metal content of the samples was assessed by ICP-MS. […] Therefore, 1 ppb was taken to be equal to 1 μg/L, and the molarity of a particular solution was considered equal to the measured concentration of a particular ion in ppb, divided by the molecular weight of the ion, multiplied by 10-6.

Data set [7] can be described thus: UV/Vis titration, stability constant (logK) with ZnCl2. Format: physicochemical. To be noted: UV/Vis titration with ZnCl2, TitrationFit. The source says:
Applicants validated the design principles by confirming that the silyl group lowered the binding affinity and shielded the hydrophilic pocket. […] [17] […] Applicants confirmed that all compounds bound Zn^II with 1:1 stoichiometry (FIG. 12). […] Applicants superimposed the X-ray structure of the TIPS-containing Zn^II:9 complex with the literature precedented Zn^II:1 and observed significant structural distortion in the Zn^II:9 complex, which could explain the lower logK.
A solution of ligand was prepared in acetonitrile. The starting concentration was chosen to be around 0.10 mM, based on the absorption maximum of the compound. This solution (2.5 mL) was pipetted into a quartz cuvette with a 1-cm optical path length. The titration was performed by the stepwise addition of a 10-mM ZnC12 solution in acetonitrile. The absorption spectra were measured over the range of 250-800 nm. The calculation of the stability constants was accomplished using TitrationFit.1

In brackets after ≈: the same amount, converted by molar mass. Entries after “also recorded” stand apart in the source; their conditions may differ. Read-outs that look alike come from different tables or passages of the source.

Take `CC(C)(C)c1ccc(O)c(CN(Cc2ccccn2)Cc2ccccn2)c1` [Compound 5, 2-((bis(pyridin-2-ylmethyl)amino)methyl)-4-(tert-butyl)phenol]: the “ionophore activity (Zn^II transport, DA-ZP1 fluorescence)” value in the data set on U2OS cells [1] is given as “poor ionophore activity; also recorded: no ionophore activity”. Further, the antibacterial activity result in data set [2] (control compound) is listed as “no ionophore activity in U2OS cells or antibacterial activity”.

Consider `CC[C@@H](C(=O)O)[C@@H]1O[C@@H]([C@@H](C)[C@H](O)[C@H](C)C(=O)[C@H](CC)[C@H]2O[C@]3(C=C[C@@H](O)[C@]4(CC[C@@](C)([C@H]5CC[C@](O)(CC)[C@H](C)O5)O4)O3)[C@H](C)C[C@@H]2C)[C@@H](C)C[C@@H]1C` [narasin, reference compound], for which the MIC in [2] (read-out: MIC) is 0.96 µg/mL (≈ 1.25 µM).

Consider `C[Si](C)(C)c1cccc(CN(Cc2ccccn2)Cc2ccccn2)c1O` [Compound 6, 2-((bis(pyridin-2-ylmethyl)amino)methyl)-6-(trimethylsilyl)phenol], for which, in the data set with U2OS cells [1], the “ionophore activity (DA-ZP1 fluorescence)” value is on record as “elicited detectable fluorescence”. Further, in [2] (read-out: MIC), the MIC is approximately 7.5 µg/mL (≈ 19.9 µM).

Turning to `c1ccc(CN(CCN(Cc2ccccn2)Cc2ccccn2)Cc2ccccn2)nc1` [TPEN, reference compound], the “logK (Zn^II binding) of known chelator/ionophore” value in data set [3] is reported as 15.5.

With `CC[Si](CC)(CC)c1cccc(CN(Cc2ccccn2)Cc2ccccn2)c1O` [Compound 7, 2-((bis(pyridin-2-ylmethyl)amino)methyl)-6-(triethylsilyl)phenol], the MIC in data set [2] (read-out: MIC) was approximately 8.4 µg/mL (≈ 20 µM).

In the case of `CC(C)(C)c1cccc(CN(Cc2ccccn2)Cc2ccccn2)c1O` [Compound 4, 2-((bis(pyridin-2-ylmethyl)amino)methyl)-6-(tert-butyl)phenol], in the data set on U2OS cells [1], the “ionophore activity (Zn^II transport, DA-ZP1 fluorescence)” value is listed as “efficiently transported Zn^II”. For the same molecule, the MIC in data set [2] (read-out: MIC) worked out at 7.2 µg/mL (≈ 19.9 µM).

For `CC(C)(C)[Si](c1ccccc1)(c1ccccc1)c1cccc(CN(Cc2ccccn2)Cc2ccccn2)c1O` [Compound 10, 2-((bis(pyridin-2-ylmethyl)amino)methyl)-6-(tert-butyldiphenylsilyl)phenol], the “ionophore activity (DA-ZP1 fluorescence)” value in the data set with U2OS cells [1] is given as “decreased the activity”. The MIC in data set [2] (read-out: MIC) is approximately 5.4 µg/mL (≈ 9.93 µM).

As to `[O-][n+]1ccccc1S` [Pyrithione, pyrithione, reference compound], the “concentration at which ionophore activity is displayed” value in the data set on U2OS cells [1] was 5 µM. Further, the minimal inhibitory concentration (MIC) in data set [2] amounted to 1.3 µg/mL (≈ 10.2 µM); in data set [2] (read-out: Strain MIC S. epidermidis) it was 1.3 µg/mL (≈ 10.2 µM); with Bacillus cereus, 1.3 µg/mL (≈ 10.2 µM); in the data set with Bacillus subtilis, 1.3 µg/mL (≈ 10.2 µM); in the data set with Staphylococcus caprae, 0.6 µg/mL (≈ 4.72 µM); in [5] (read-out: Average MIC) it was 1.1 µg/mL. In addition, the minimal inhibitory concentration (MIC) in data set [5] (read-out: Average MIC (molar, in brackets)) came out at 8.7 µM; in data set [5] (read-out: average MIC), 1.1 µg/mL. The CC50 in the data set with U2OS cells [4] turned out to be 990 nM. The antibacterial selectivity turned out to be 0.11 times in the data set on bacteria vs U2OS cells; 0.11 in the data set on bacteria vs U2OS cells (ratio of average molar MIC and U2OS EC50, Table 4). Moreover, the “selective toxicity to bacterial cells over mammalian cells” value with bacteria vs U2OS cells stood at 0.1 fold.

In [2], `C[C@H](CCC(=O)O)C[C@H](C)C[C@H](C)C(=O)/C=C(\O)[C@H](C)C[C@H](C)C/C=C/[C@@H](C)[C@@H](O)[C@@H](C)[C@@H](O)C[C@@H]1CC[C@@](C)([C@H]2CC[C@@](C)([C@@H](C)O)O2)O1` [ionomycin, reference compound] returned an MIC of 15 µg/mL (≈ 21.2 µM).

For `Oc1ccccc1CN(Cc1ccccn1)Cc1ccccn1` [Compound 1, 2-((bis(pyridin-2-ylmethyl)amino)methyl)phenol], the “intracellular Zn^II level relative to DMSO” value in the data set with U2OS cells [6] was “similar”. Also, the “logK (Zn^II binding)” value in data set [7] amounted to 12.5.

As to `CC(C)(C)n1ccn([BH-](n2ccn(C(C)(C)C)c2=S)n2ccn(C(C)(C)C)c2=S)c1=S.[K+]` [potassium hydrotris(N-tert-butyl-2-thioimidazolyl) borate, reference compound], in the data set with U2OS cells [1], the “concentration at which ionophore activity is displayed” value is 5 µM.

In data set [2], `CC[C@@H](C(=O)[C@@H](C)[C@@H](O)[C@H](C)[C@@H]1O[C@@H]([C@@H](CC)C(=O)O)CC[C@@H]1C)[C@H]1O[C@]2(C=C[C@@H](O)[C@]3(CC[C@@](C)([C@H]4CC[C@](O)(CC)[C@H](C)O4)O3)O2)[C@H](C)C[C@@H]1C` [salinomycin, reference compound] showed an MIC of 1.88 µg/mL (≈ 2.5 µM).

As for `CNc1ccc2oc(C[C@H]3O[C@@]4(CC[C@H]3C)O[C@H]([C@H](C)C(=O)c3ccc[nH]3)[C@H](C)C[C@H]4C)nc2c1C(=O)O` [calcimycin, reference compound], in data set [2], the minimal inhibitory concentration (MIC) was approximately 0.16 µg/mL (≈ 0.306 µM).
